Measured values published in ChEMBL document CHEMBL3414484, “Novel imidazole derivatives as heme oxygenase-1 (HO-1) and heme oxygenase-2 (HO-2) inhibitors and their cytotoxic activity in human-derived cancer cell lines” (Eur J Med Chem, 2015).
Each block holds one molecule with its values, some of them ahead of it.

Legend:
[1] = molecular target: T1, Heme oxygenase 2 (Rattus norvegicus, UniProt P23711); experiment: Inhibition of HO2 in Sprague-Dawley rat brain microsomal fraction assessed as reduction in bilirubin formation incubated for 60 mins by double beam spectrophotometry
T1 sequence (P23711 whole entry): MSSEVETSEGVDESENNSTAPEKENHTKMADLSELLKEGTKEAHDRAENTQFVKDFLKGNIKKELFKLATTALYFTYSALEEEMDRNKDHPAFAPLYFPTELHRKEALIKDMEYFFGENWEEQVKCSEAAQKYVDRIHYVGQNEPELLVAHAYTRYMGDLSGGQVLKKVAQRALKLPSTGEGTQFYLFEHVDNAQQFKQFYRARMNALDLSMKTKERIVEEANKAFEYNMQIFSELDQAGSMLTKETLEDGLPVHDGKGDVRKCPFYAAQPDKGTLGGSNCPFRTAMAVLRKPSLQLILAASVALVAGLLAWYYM

[2] = molecular target: T2, Heme oxygenase 1 (Rattus norvegicus, UniProt P06762); experiment: Inhibition of HO1 in Sprague-Dawley rat spleen microsomal fraction assessed as reduction in bilirubin formation incubated for 60 mins by double beam spectrophotometry; assay type: microsomes
T2 sequence (P06762 whole entry): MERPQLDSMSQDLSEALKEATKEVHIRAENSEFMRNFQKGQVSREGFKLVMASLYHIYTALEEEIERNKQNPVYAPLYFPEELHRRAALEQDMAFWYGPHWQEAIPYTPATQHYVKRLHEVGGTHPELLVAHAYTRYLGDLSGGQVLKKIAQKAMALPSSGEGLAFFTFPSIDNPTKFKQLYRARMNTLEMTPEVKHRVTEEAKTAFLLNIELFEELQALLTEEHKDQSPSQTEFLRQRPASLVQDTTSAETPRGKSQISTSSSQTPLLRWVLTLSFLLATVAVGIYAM

[3] = tested on: MDCK; experiment: Cytotoxicity against MDCK cells incubated for 72 hrs by sulforhodamine B assay; assay type: cell-based; conditions: Canis lupus familiaris
[4] = tested on: MCF7; experiment: Cytotoxicity against human MCF7 cells incubated for 72 hrs by sulforhodamine B assay; assay type: functional, cell-based; conditions: MCF7, 72 h
[5] = tested on: MDCK; experiment: Selectivity index, ratio of IC50 for MDCK cells to IC50 human PC3 cells
[6] = tested on: DU-145; experiment: Cytotoxicity against human DU145 cells incubated for 72 hrs by sulforhodamine B assay; assay type: functional, cell-based; conditions: DU-145, 72 h
[7] = tested on: DU-145; experiment: Selectivity index, ratio of IC50 for MDCK cells to IC50 human DU145 cells
[8] = tested on: MDCK; experiment: Selectivity index, ratio of IC50 for MDCK cells to IC50 human MCF7 cells
[9] = Cytotoxicity against human PC3 cells incubated for 72 hrs by sulforhodamine B assay; assay type: functional, cell-based; conditions: PC-3, 72 h
[10] = tested on: LNCaP; experiment: Selectivity index, ratio of IC50 for MDCK cells to IC50 human LNCAP cells
[11] = tested on: MDCK; experiment: Selectivity index, ratio of IC50 for MDCK cells to IC50 human MDA-MB-231 cells
[12] = tested on: MDA-MB-231; experiment: Cytotoxicity against human MDA-MB-231 cells incubated for 72 hrs by sulforhodamine B assay; assay type: functional, cell-based; conditions: MDA-MB-231, 72 h
[13] = tested on: LNCaP; experiment: Cytotoxicity against human LNCAP cells incubated for 72 hrs by sulforhodamine B assay; assay type: functional, cell-based

- IC50 [1]: 0.9 µM
- IC50 [2]: > 100 µM
Compound: Clc1ccc2sc(SCCCCn3ccnc3)nc2c1

- IC50 [1]: 11.2 µM
Compound: Brc1cccc(OCCCCn2cncn2)c1

Compound: Ic1ccc(OCCCCn2ccnc2)cc1
- IC50 [3]: 103 µM
- IC50 [4]: 27.7 µM
- Ratio IC50 [5]: 2
- IC50 [6]: 54.9 µM
- Ratio IC50 [7]: 2
- Ratio IC50 [8]: 2
- IC50 [9]: 82.5 µM
- Ratio IC50 [10]: 2
- Ratio IC50 [11]: 2
- IC50 [12]: 55.1 µM
- IC50 [13]: 16.9 µM

- IC50 [1]: 12.5 µM
- IC50 [2]: 0.9 µM
Compound: c1ccc2sc(SCCCn3ccnc3)nc2c1
- IC50 [3]: 82.4 µM
- IC50 [4]: 27.5 µM
- Ratio IC50 [5]: 2
- IC50 [6]: 54.8 µM
- Ratio IC50 [7]: 2
- Ratio IC50 [8]: 2
- IC50 [9]: 82.6 µM
- Ratio IC50 [10]: 2
- Ratio IC50 [11]: 2
- IC50 [12]: 55.1 µM
- IC50 [13]: 55 µM

- IC50 [1]: 74.1 µM
- IC50 [2]: 30.9 µM
Compound: c1ccc2oc(SCCCCn3ccnc3)nc2c1

- IC50 [1]: > 100 µM
Compound: c1ccc(OCCCn2cncn2)cc1

- IC50 [1]: 44.7 µM
Compound: O=[N+]([O-])c1ccc(OCCCn2cncn2)cc1

- IC50 [1]: 33.9 µM
Compound: Brc1cccc(OCCCn2cncn2)c1

- IC50 [1]: 41.7 µM
Compound: O=[N+]([O-])c1ccc(OCCCCn2cncn2)cc1

- IC50 [1]: 36.3 µM
Compound: Ic1ccc(OCCCn2ccnc2)cc1

- IC50 [1]: 0.9 µM
- IC50 [2]: 44 µM
Compound: Ic1ccc(OCCCCCn2ccnc2)cc1
- IC50 [3]: 55.1 µM
- IC50 [4]: 11 µM
- Ratio IC50 [5]: 2
- IC50 [6]: 27.7 µM
- Ratio IC50 [7]: 2
- Ratio IC50 [8]: 2
- IC50 [9]: 27.6 µM
- Ratio IC50 [10]: 2
- Ratio IC50 [11]: 2
- IC50 [12]: 27.4 µM
- IC50 [13]: 27.8 µM

- IC50 [1]: 0.8 µM
- IC50 [2]: 1 µM
Compound: c1ccc2sc(SCCCCn3ccnc3)nc2c1
- IC50 [3]: 58.5 µM
- IC50 [4]: 27.5 µM
- Ratio IC50 [5]: 2
- IC50 [6]: 82.2 µM
- Ratio IC50 [7]: 2
- Ratio IC50 [8]: 2
- IC50 [9]: 82.5 µM
- Ratio IC50 [10]: 2
- Ratio IC50 [11]: 2
- IC50 [12]: 55.1 µM
- IC50 [13]: 54.7 µM

- IC50 [1]: 35.5 µM
- IC50 [2]: 17.7 µM
Compound: O=c1oc2ccccc2n1CCCCn1ccnc1

- IC50 [1]: 28.8 µM
- IC50 [2]: 16.6 µM
Compound: O=c1sc2ccccc2n1CCCn1ccnc1

- IC50 [1]: 0.9 µM
- IC50 [2]: 18.4 µM
Compound: Clc1ccc2sc(SCCCn3ccnc3)nc2c1

- IC50 [1]: 77.6 µM
Compound: O=[N+]([O-])c1ccc(OCCCn2ccnc2)cc1

- IC50 [1]: 0.9 µM
- IC50 [2]: 42.6 µM
Compound: Brc1cccc(OCCCCCn2ccnc2)c1

- IC50 [1]: 0.8 µM
- IC50 [2]: 20 µM
Compound: Brc1cccc(OCCCCCn2cncn2)c1

- IC50 [1]: 49 µM
- IC50 [2]: 16.9 µM
Compound: c1ccc2oc(SCCCn3ccnc3)nc2c1

- IC50 [1]: 11.2 µM
- IC50 [2]: 39.8 µM
Compound: c1ccc2sc(SCCCCCn3ccnc3)nc2c1

Compound: Brc1cccc(OCCCCn2ccnc2)c1
- IC50 [3]: 82.4 µM
- IC50 [4]: 27.6 µM
- Ratio IC50 [5]: 2
- IC50 [6]: 46.6 µM
- Ratio IC50 [7]: 2
- Ratio IC50 [8]: 2
- IC50 [9]: 54.9 µM
- Ratio IC50 [10]: 2
- Ratio IC50 [11]: 2
- IC50 [12]: 27.5 µM
- IC50 [13]: 27.6 µM

- IC50 [1]: > 100 µM
- IC50 [2]: 42 µM
Compound: Ic1ccc(OCCCCCCn2ccnc2)cc1

- IC50 [1]: 41 µM
- IC50 [2]: 34 µM
Compound: Brc1cccc(OCCCCCCn2ccnc2)c1

- IC50 [1]: 0.9 µM
- IC50 [2]: 36.3 µM
Compound: Clc1ccc2sc(SCCCCCn3ccnc3)nc2c1
